Holding throughout (assay): isothermal titration calorimetry
Holding throughout (type): binding

Assay [1] addresses T1, UrtA (Prochlorococcus marinus, UniProt Q7V3V9, E146A).
T1 construct: 24-residue predicted signal peptide removed from 431-residue precursor (432 elsewhere in the source); C-terminal 6xHis tag, pET-22b, E. coli BL21(DE3); about 50 kDa; monomer; structure residues 38-431 described

Assay [2] deals with T2, UrtA (Prochlorococcus marinus, UniProt Q7V3V9, Y141A).
T2 construct: 24-residue predicted signal peptide removed from 431-residue precursor (432 elsewhere in the source); C-terminal 6xHis tag, pET-22b, E. coli BL21(DE3); about 50 kDa; monomer; structure residues 38-431 described

For assay [3], the target named is T3, UrtA (Prochlorococcus marinus, UniProt Q7V3V9, F192A).
T3 construct: 24-residue predicted signal peptide removed from 431-residue precursor (432 elsewhere in the source); C-terminal 6xHis tag, pET-22b, E. coli BL21(DE3); about 50 kDa; monomer; structure residues 38-431 described

In assay [4] the target is T4, UrtA (Prochlorococcus marinus, UniProt Q7V3V9).
T4 construct: 24-residue predicted signal peptide removed from 431-residue precursor (432 elsewhere in the source); C-terminal 6xHis tag, pET-22b, E. coli BL21(DE3); about 50 kDa; monomer; structure residues 38-431 described
T4 sequence (Q7V3V9 25-431): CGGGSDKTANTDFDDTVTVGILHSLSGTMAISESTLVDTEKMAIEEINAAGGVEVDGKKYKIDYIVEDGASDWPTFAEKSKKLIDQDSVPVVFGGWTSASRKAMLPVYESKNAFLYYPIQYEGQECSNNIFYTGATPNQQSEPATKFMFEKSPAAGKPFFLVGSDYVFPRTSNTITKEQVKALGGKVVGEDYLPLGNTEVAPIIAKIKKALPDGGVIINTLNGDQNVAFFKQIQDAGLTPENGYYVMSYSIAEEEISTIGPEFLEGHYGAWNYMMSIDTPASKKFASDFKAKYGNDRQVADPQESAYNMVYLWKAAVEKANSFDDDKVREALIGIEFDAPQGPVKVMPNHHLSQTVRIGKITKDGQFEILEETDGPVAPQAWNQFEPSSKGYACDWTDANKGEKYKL

Assay [5] has as its target T5, UrtA (Prochlorococcus marinus, UniProt Q7V3V9, S274A).
T5 construct: 24-residue predicted signal peptide removed from 431-residue precursor (432 elsewhere in the source); C-terminal 6xHis tag, pET-22b, E. coli BL21(DE3); about 50 kDa; monomer; structure residues 38-431 described

Assay [6] has as its target T6, UrtA (Prochlorococcus marinus, UniProt Q7V3V9, W120A).
T6 construct: 24-residue predicted signal peptide removed from 431-residue precursor (432 elsewhere in the source); C-terminal 6xHis tag, pET-22b, E. coli BL21(DE3); about 50 kDa; monomer; structure residues 38-431 described
Conditions: pH 8.0, 20 mM Tris-HCl, 200 mM NaCl, 25 °C.

Data on one molecule can be found in paper PMC10392092, “Structural and molecular basis for urea recognition by Prochlorococcus” (The Journal of Biological Chemistry, 2023).

T1 sequence (Q7V3V9 entry or part of it E146A): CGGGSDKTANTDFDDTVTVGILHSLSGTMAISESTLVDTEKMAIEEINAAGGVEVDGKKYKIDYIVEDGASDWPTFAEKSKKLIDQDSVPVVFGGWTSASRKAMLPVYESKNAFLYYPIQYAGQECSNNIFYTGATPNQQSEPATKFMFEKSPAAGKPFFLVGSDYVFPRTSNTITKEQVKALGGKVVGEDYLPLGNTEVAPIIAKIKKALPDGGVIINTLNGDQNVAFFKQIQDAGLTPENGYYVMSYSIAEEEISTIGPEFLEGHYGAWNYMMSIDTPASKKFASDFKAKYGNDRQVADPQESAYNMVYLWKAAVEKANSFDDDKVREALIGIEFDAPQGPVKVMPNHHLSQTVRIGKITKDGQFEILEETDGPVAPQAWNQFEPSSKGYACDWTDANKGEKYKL
T5 sequence (Q7V3V9 entry or part of it S274A): as the sequence (Q7V3V9 entry or part of it E146A) above, with A122E, S250A counted along it
T6 sequence (Q7V3V9 entry or part of it W120A): as the sequence (Q7V3V9 entry or part of it E146A) above, with W96A, A122E counted along it
T2 sequence (Q7V3V9 entry or part of it Y141A): as the sequence (Q7V3V9 entry or part of it E146A) above, with Y117A, A122E counted along it
T3 sequence (Q7V3V9 entry or part of it F192A): as the sequence (Q7V3V9 entry or part of it E146A) above, with A122E, F168A counted along it

Broadly, the Kd is the free concentration of one partner at which half of the binding sites on the other are occupied at equilibrium, for simple one-to-one binding. As to `NC(N)=O` [urea], the Kd at UrtA [1] was 3050 ± 609 nM; at UrtA [2], 7950 ± 1220 nM; at UrtA [3], 114 ± 26.7 nM; at UrtA [4], 141 ± 11.2 nM; on UrtA [5], 1280 ± 639 nM; on UrtA [6] it was “the mutant W120A was unable to bind to urea”.
